Patent US20120041062A1, “COMPOUND OF SALVIANOLIC ACID L, PREPARATION METHOD AND USE THEREOF” (Tianjin Tasly Pharmaceutical Co., Ltd., priority 2009, published 2012)

Assays:
[1] = test system: PC12 cell of oxygen-glucose deprivation; test: Cell survival rate of PC12 cell of oxygen-glucose deprivation (MTT method); assay type: cell-based; details: pre-treated 6 hours
Protocol: (§1) a. MTT was added into 96-well microplate with 20 μl in each well, and reacted for 4 hours in incubator.
(§2) b. The supernatant was discarded, followed by addition of 150 μl DMSO in each well and shaken on flat shaking-table for 10 min.
(§3) c. Absorbance of each well was measured by ELISA reader at wavelength of 570 nm to calculate cell survival rate.
(§4) Cell survival rate %=(OD value of drug administration group/OD value of negative control group)×100%
(§5) a. PC12 cells at exponential growth phase in good condition were washed with PBS twice, followed by addition of 0.25% trypsin digestive solution to perform digestion at 37° C. for about 1 min. This reaction was ended by addition of blood serum-contained culture medium, centrifuged and resuspended, then counted the cells to prepare a suspension with a cell density of 2×10^4−4×10^4 cells/ml.
(§6) b. The resulting cell suspension was inoculated into 96-well microplate with 180 μl in each well (n=3) and incubated in constant temperature CO2 incubator at 37° C. for 24 hours.
c. Grouping and treatments: there were 3 groups: blank control group (normoxia+0.1% DMS0), model group (OGD+0.1% DMSO, oxygen-glucose deprivation) and positive control group (Edaravone).
Model group: the cell in culture microplate was cultured with glucose-free DMEM medium, which was placed in a hypoxic chamber, started to record time for 0.5 hour when O2% was less than 2.6, and then transferred to a routine incubator. The determination was carried out after a period of time of incubation.
Positive control group: Edaravone (2 μg/ml) was used as a positive drug. Drug was added and pre-treated for 6 hours, and then replaced with glucose-free medium, 180 μl per well. The drug was added again, placed in a hypoxic chamber, started to record time for 0.5 hour when O2% was less than 2.6, and then transferred to a routine incubator. The determination was carried out after a period of time of incubation.
(§7) d. The cell activity was determined by MTT method.
(§8) c. Grouping and treatments: there were 4 groups: blank control group (normoxia+0.1% DMSO), model group (OGD+DMSO, oxygen-glucose deprivation), positive control group (Edaravone) and the drug treatment group.
(§9) Model group: the culture medium for the cells in microplate was changed to glucose-free DMEM, placed in a hypoxic chamber, and started to record time for 0.5 hour when O2% was less than 2.6, and then transferred to a routine incubator to culture overnight.
(§10) Positive control group: Edaravone (2 μg/ml ) was used as a positive drug. Drug was added and pre-treated for 6 hours, and then the culture medium was replaced with glucose-free DMEM medium, 180 μl per well. The drug was added again, placed in a hypoxic chamber, started to record time for 0.5 hour when 02% was less than 2.6, and then transferred to a routine incubator to culture overnight.
(§11) Drug treatment group: the drug at different concentrations was added and pre-treated for 6 hours, the culture medium was changed to glucose-free DMEM medium, 180 μl per well. The drug was added again, placed in a hypoxic chamber, started to record time for 0.5 hour when O2% was less than 2.6, and then transferred to a routine incubator to culture overnight.
e. The activity of cell was determined by MTT method.

[2] = test system: H2O2-damaged PC12 cell; test: LDH activity of H2O2-damaged PC12 cell; assay type: cell-based; details: pre-treated 6 hours, 0.5 mM H2O2 1 hour, supernatant
Protocol: (§12) The experiment of determination was carried out according to the Specification of LDH test kit provided by Nanjing Jiangcheng Bioengineering Institute.
(§13) LDH activity (U/L)=(ODU−ODC)/(ODS−ODB)×CS×N×1 000
(§14) Wherein, ODU represented the absorbance of the tested sample, ODC represented the absorbance of control sample, ODB represented the absorbance of blank, ODS represented the absorbance of standard solution, CS represented the standard concentration of 2 mmol/L, N represented the dilution multiple of sample before determination.
as §5, §6
(§15) c. Grouping and treatments: there were 5 groups: blank control group (PBS), solvent control group (DMSO or ethyl acetate), model group (H2O2), positive control group (Edaravone) and drug treatment group.
(§16) Model group: 0.5 mM hydrogen peroxide (H2O2) was used to treat for 1 hour.
(§17) Positive control group: Edaravone (2 μg/ml ), used as a positive drug, was added to cell and pre-treated for 6 hours, into which 0.5 mM hydrogen peroxide was added to damage for 1 hour and replaced with freshly-prepared DMEM+10%FBS culture medium.
(§18) Drug treatment group: after the cell was inoculated into culture microplate, different tested drugs at different concentration were added firstly and pre-treated for 6 hours with 20 μl per well, into which 0.5 mM H2O2 was added to damage for 1 hour, and then replaced with freshly-prepared DMEM+10%FBS culture medium.
d. The supernatant was collected, 20 μl per well, for determination of LDH activity.

[3] = test system: H2O2-damaged PC12 cell; test: Cell survival rate of H2O2-damaged PC12 cell (MTT method); assay type: cell-based; details: pre-treated 6 hours, 0.5 mM H2O2 1 hour
Protocol: as §1, §2, §3, §4
as §5, with “cells at,” for “cells at”
as §6
c. Grouping and treatments: there were 4 groups: blank control group (PBS), solvent control group (DMSO), model group (H2O2) and positive control group (Edaravone).
Positive control group: Edaravone (2 μg/ml) is added as a positive drug and then pre-treated for 6 hours, into which 0.5 mM hydrogen peroxide was added to damage for 1 hour and replaced with freshly-prepared DMEM+10%FBS culture medium, 200 μl per well.
as §7, §5, §15, §16, §17, §18
e. The activity of cell in cell microplate was determined by MTT method.

[4] = test system: PC12 cell of oxygen-glucose deprivation (OGD); test: LDH activity of PC12 cell of oxygen-glucose deprivation (OGD); assay type: cell-based; details: pre-treated 6 hours, OGD 0.5 hour, cultured overnight, supernatant
Protocol: as §12, §13, §14, §5, §6, §8, §9, §10, §11
d. Resulting supernatant was collected the next day with 20 μl per well, which was used for determination of LDH activity.

[5] = DPPH free-radical scavenging reaction; assay type: biochemical; details: for DPPH free-radical scavenging rate: 20 min, 25° C., 517 nm
Protocol: In this study, 1,1-diphenyl-2-picryl-hydrazyl (DPPH) free-radical scavenging reaction model has been used to observe the free-radical scavenging activity of the salvianolic acid L. The total reaction volume was 2 ml. 1 ml of the sample solutions at different concentrations in 80% methanol (v/v) were added into 100 μM of DPPH methanol solution, mixed uniformly to allow the solution to react for 20 min at 25° C. in the dark. Absorbance of the reaction solution was measured at 517 nm. In this study, vitamin C was regarded as a positive control. Free-radical scavenging rate was calculated in accordance with the following equation: Free-radical scavenging rate (%)=[1−Asample/Acontrol)/Acontrol]×100% Wherein, the Asample means the absorbance of the tested samples, and Acontrol means the absorbance of blank control.

[6] = Determination of reducing capacity (potassium ferricyanide / ferric chloride, absorbance at 700 nm); assay type: biochemical; details: FIG. 10; in words, compared with vitamin C
Protocol: 0.5 ml of 200 mM phosphate buffer (pH6.8) containing different concentrations of the salvianolic acid L and 1.0% potassium ferricyanide solution were sucked respectively and cooled on an ice bath after being heated on a water bath (50° C.) for 20 min. 0.5 ml of trichloroacetic acid solution (10%) was added and centrifuged at […] for 10 min. 1.0 ml of the resulting supernatant was taken, into which 1.0 ml of distilled water and 0.2 ml of ferric chloride solution (0.1%) were added, stood still for 10 min and the absorbance was measured at 700 nm. Meanwhile, the blank experiment was carried out. Vitamin C is a strongly reducing substance, acting as positive control in this study. Reducing capacity of the sample is represented by subtracting the absorbance of the blank control from the absorbance of the tested sample. Thus, it means the higher absorbance, the stronger reducing capacity.

[7] = final concentration 0.02 μg/ml, OGD 0.5 hour, cultured overnight
[8] = final concentration 0.2 μg/ml, OGD 0.5 hour, cultured overnight
[9] = final concentration 2 μg/ml, OGD 0.5 hour, cultured overnight

## CC1=NN(c2ccccc2)C(=O)C1 [Edaravone]
[1]; establishment of oxygen-glucose deprivation model, 2 μg/ml
  Survival rate (%): 48.50 ± 1.81 %
[1]; [7]
  Survival rate (%): 44.75 ± 1.02 %
[1]; [8]
  Survival rate (%): 36.37 ± 2.52 %
[1]; [9]
  Survival rate (%): 39.99 ± 0.55 %
[2]; final concentration 0.02 μg/ml
  LDH activity (U/L): 532.44 ± 11.55 U/L
[2]; final concentration 0.2 μg/ml
  LDH activity (U/L): 568.23 ± 11.55 U/L
[2]; final concentration 2 μg/ml
  LDH activity (U/L): 523.49 ± 5.17 U/L
[3]; establishment of hydrogen peroxide-damaged model, 2 μg/ml
  Survival rate (%): 53.54 ± 3.66 %
[3]; final concentration 0.02 μg/ml
  Survival rate (%): 47.6 ± 2 %
[3]; final concentration 0.2 μg/ml
  Survival rate (%): 44.2 ± 6.11%
[3]; final concentration 2 μg/ml
  Survival rate (%): 58.18 ± 2.64 %
[4]; final concentration 0.02 μg/ml
  LDH activity (U/L): 40.27 ± 5.17 U/L
[4]; final concentration 0.2 μg/ml
  LDH activity (U/L): 22.37 ± 5.17 U/L
[4]; final concentration 2 μg/ml
  LDH activity (U/L): 31.32 ± 5.17 U/L

## O=C1O[C@H]([C@@H](O)CO)C(O)=C1O [Vitamin C]
[5]; sample 0.314 μg/ml
  DPPH free-radical scavenging rate: 3.42 ± 0.42%
[5]; sample 0.625 μg/ml
  DPPH free-radical scavenging rate: 7.06 ± 1.88%
[5]; sample 1.25 μg/ml
  DPPH free-radical scavenging rate: 13.82 ± 1.83%
[5]; sample 2.5 μg/ml
  DPPH free-radical scavenging rate: 29.39 ± 5.92%
[5]; sample 5 μg/ml
  DPPH free-radical scavenging rate: 55.34 ± 7.21%

## O=C(/C=C/c1ccc(O)c(O)c1/C(=C/c1ccc(O)c(O)c1)C(=O)O)OC(Cc1ccc(O)c(O)c1)C(=O)O (centres unmarked) [salvianolic acid L]
[1]; [7]
  Survival rate (%): 47.74 ± 1.72 %
[1]; [8]
  Survival rate (%): 36.68 ± 2.72 %
[1]; [9]
  Survival rate (%): 35.96 ± 1.44%
[2]; final concentration 0.02 μg/ml
  LDH activity (U/L): 550.336 ± 25.83 U/L
[2]; final concentration 0.2 μg/ml
  LDH activity (U/L): 474.27 ± 71.96 U/L
[2]; final concentration 2 μg/ml
  LDH activity (U/L): 487.70 ± 72.51 U/L
[3]; final concentration 0.02 μg/ml
  Survival rate (%): 47.2 ± 0.8 %
[3]; final concentration 0.2 μg/ml
  Survival rate (%): 44.89 ± 0.48%
[3]; final concentration 2 μg/ml
  Survival rate (%): 48.34 ± 0.25%
[6]
  reducing capacity (absorbance at 700 nm minus blank): much stronger than that of vitamin C
[4]; final concentration 0.02 μg/ml
  LDH activity (U/L): 53.69 ± 29.23 U/L
[4]; final concentration 0.2 μg/ml
  LDH activity (U/L): 31.32 ± 11.55 U/L
[4]; final concentration 2 μg/ml
  LDH activity (U/L): 40.27 ± 5.17 U/L
[5]; compared with vitamin C, Table 3 and FIG. 9
  DPPH free-radical scavenging rate (in words): much higher free-radical scavenging rate than that of the vitamin C
[5]; sample 0.314 μg/ml
  DPPH free-radical scavenging rate: 5.41 ± 0.74%
[5]; sample 0.625 μg/ml
  DPPH free-radical scavenging rate: 12.95 ± 2.42%
[5]; sample 1.25 μg/ml
  DPPH free-radical scavenging rate: 25.21 ± 1.82%
[5]; sample 2.5 μg/ml
  DPPH free-radical scavenging rate: 44.19 ± 3.70%
[5]; sample 5 μg/ml
  DPPH free-radical scavenging rate: 83.17 ± 4.12%
